Experimental data as given in PubChem BioAssay (NCI).
“And” between values parts separate entries of the source, which are not always exact repeats. Identical values can stand only once.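 Growth conditions: 96-well plates. Treatment: test compound, 48 hours, 5 concentrations. Analysis: linear interpolation between bracketing concentrations; unreached endpoints set to highest concentration. At the GI50, growth is halved. TGI: concentration producing complete growth inhibition.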 *1 amine or outer side, *2 acyl side, *3 side chain or, on linkers, in order; H or OH if unused. Where a SMILES comes first, the peptide text is derived from it. Bridges are numbered along the chain shown (N, C = ends). [ ]: non-standard residue; d: D form. ξ: configuration not given here. X4 = CCC(C)C(N[*:1])C(O)CC(=O)O[C@H](C(=O)C(C)C(=O)[*:2])C(C)C; NMeY = CN[C@@H](Cc1ccc(O)cc1)C(=O)O; X9 = O=C([C@@H]1CC(O)CN1[*:1])[*:2]; ξNMeL = CNC(CC(C)C)C(=O)O; ξT = CC(O)C(N)C(=O)O

What was measured:
Test in all cases: growth of human tumour cells (NCI), 48 h
[1] = system: T-47D breast
[2] = system: OVCAR-4 ovarian
[3] = system: PC-3 prostate
[4] = system: HCC-2998 colon
[5] = system: OVCAR-5 ovarian
[6] = system: CCRF-CEM leukemia
[7] = system: SF-268 CNS
[8] = system: NCI-H460 lung
[9] = system: SN12C renal
[10] = system: DU-145 prostate

SMILES | TGI [1] | TGI [2] | TGI [3] | TGI [4] | TGI [5] | TGI [6] [µM] | TGI [7] | TGI [8] | TGI [9] | TGI [10] | GI50 [1] | GI50 [2] | GI50 [3] | GI50 [4] | GI50 [5] | GI50 [6] [µM] | GI50 [7] | GI50 [8] | GI50 [9] | GI50 [10]
O=C(O)CC(Cc1ccc2c(c1)OCO2)C(=O)O (configuration not stated) | > 100 µM | > 100 µM | > 100 µM | > 100 µM | > 100 µM | > 100 | > 100 µM | > 100 µM | > 100 µM | > 100 µM |  |  |  |  |  |  |  |  |  | 
COc1cc(C)cc2c1OC(c1ccccc1)CC2=O (configuration not stated) | > 100 µM | > 100 µM | > 100 µM | > 100 µM | > 100 µM | > 100 | > 100 µM | > 100 µM | > 100 µM | > 100 µM | > 100 µM | > 100 µM | > 100 µM | > 100 µM | > 100 µM | > 100 | > 100 µM | > 100 µM | > 100 µM | > 100 µM
COc1ccc(C2=NNC(c3ccc(-c4ccc(OC)cc4[N+](=O)[O-])o3)C2)cc1 (configuration not stated) | 88.1 µM | > 100 µM | > 100 µM | > 100 µM | > 100 µM | > 100 | 53.2 µM | > 100 µM |  | > 100 µM | 18.5 µM | > 100 µM | 83.3 µM | 36.9 µM | > 100 µM | 70 | 20.3 µM | 46.8 µM |  | 36.3 µM
[N-]=[N+]=Nc1ncc(-c2ccc(C(F)(F)F)cc2)c(NC2CCCCCC2)n1 | > 10 µM | > 10 µM | > 10 µM | > 10 µM | > 10 µM | > 10 | > 10 µM | > 10 µM | > 10 µM | > 10 µM | > 10 µM | > 10 µM | > 10 µM | > 10 µM | > 10 µM | > 10 | > 10 µM | > 10 µM | > 10 µM | > 10 µM
C[C@]12CC[C@H]3[C@@H](CC=C4C[C@@H](O)CC[C@@]43C)[C@@H]1C/C(=C\c1cccc(OCCN3CCOCC3)c1)[C@@H]2O | > 100 µM | > 100 µM | > 100 µM | > 100 µM | > 100 µM | > 100 | > 100 µM | > 100 µM | > 100 µM | > 100 µM | 6.46 µM | > 100 µM | 27.4 µM | > 100 µM | > 100 µM | 41.1 | 70.9 µM | > 100 µM | > 100 µM | > 100 µM
OCCNc1nc(NCCO)nc(Nc2ccc(C3=NN(c4cc(Cl)cc(Cl)c4)C(c4ccc(Cl)cc4)C3)cc2)n1 (configuration not stated) | 3.88 µM | 5.02 µM | 4.32 µM | 3.52 µM | 4.43 µM | 5.46 | 3.79 µM | 3.66 µM | 3.47 µM | 3.22 µM | 1.5 µM | 2 µM | 1.62 µM | 1.96 µM | 1.96 µM | 2.11 | 1.86 µM | 1.89 µM | 1.82 µM | 1.67 µM
CC(C)(C)Cn1c(N)nc2ccc(-c3[nH]c(C(C)(C)C)nc3-c3ccc(F)cc3)nc21 | 23.7 µM | 40.4 µM | > 62.5 µM | 24.1 µM | 29.3 µM | > 63 | 28.7 µM | 26.5 µM | 21.4 µM | 23.5 µM | 5.34 µM | 13.3 µM | 12.6 µM | 11.1 µM | 13.7 µM | 12.6 | 10.6 µM | 7.46 µM | 5.57 µM | 10.6 µM
CCC(C)C1NC(=O)C(NC(=O)C(CC(C)C)N(C)C(=O)[C@@H]2CC(O)CN2)C(C)OC(=O)[C@H](Cc2ccc(OC)cc2)N(C)C(=O)[C@@H]2CCCN2C(=O)[C@H](CC(C)C)NC(=O)C(C)C(=O)[C@H](C(C)C)OC(=O)CC1O (some centres not stated) (H-[X9][ξNMeL][ξT][X4]LP[NMeY](Me); ester 3-C) | 0.0657 µM and 0.0994 µM | 0.091 µM and 0.704 µM | 0.13 µM and 0.131 µM | 0.101 µM and 0.133 µM | 0.559 µM and 1.49 µM |  | 0.172 µM and 0.252 µM | 0.134 µM and 1.1 µM | 0.0759 µM and 0.682 µM | 0.398 µM and 0.55 µM |  |  |  |  | 0.365 µM |  |  |  | 0.0109 µM | 0.0149 µM
C=C1C(=O)O[C@H]2[C@H]1CC/C(COC(=O)NCCc1ccc(OC)cc1)=C\CC[C@@]1(C)O[C@@H]21 | 6.52 µM | 13.6 µM | 21.7 µM | 5.63 µM | 8.27 µM | 7.74 | 23.3 µM | 35.2 µM |  | 5.16 µM | 2.47 µM | 3.41 µM | 8.08 µM | 2.48 µM | 2.65 µM | 1.98 | 10.6 µM | 12.2 µM |  | 1.92 µM
COc1cc(N2CCC(N(C)C)CC2)ccc1Nc1ncc(Cl)c(Nc2ccccc2P(C)(C)=O)n1 | 38.5 µM and > 10 µM | 10.8 µM and > 10 µM | > 96.6 µM | > 52.2 µM | 8.97 µM and > 10 µM | > 100 | 5.04 µM and 2.76 µM | 12.9 µM and > 3.67 µM | > 72.8 µM | > 25.2 µM and 3.8 µM | 7.03 µM and 1.43 µM | 0.448 µM and 0.615 µM | 3.73 µM and 0.506 µM | 3.6 µM and 0.446 µM | 0.351 µM and 0.198 µM |  | 1.17 µM and 0.386 µM | 1.92 µM and 0.385 µM | 0.971 µM and 0.398 µM | 0.972 µM and 0.545 µM
O=C(Oc1ccccc1)c1cc(O)c(O)c(O)c1 | > 100 µM | > 100 µM | > 100 µM | 44.3 µM | > 100 µM | > 100 | > 100 µM | > 100 µM | > 100 µM | > 100 µM | 18.1 µM | 14 µM | 13.7 µM | 13.5 µM | 25.2 µM | 1.28 | 8.15 µM | 4.54 µM | 9.73 µM | 15.7 µM
O=[N+]([O-])c1cccc(-c2nc3sccn3c2-c2ccnc(NCCCNS(=O)(=O)c3ccc(F)cc3)n2)c1 | 2.82 µM | 6.55 µM | 4.82 µM | > 100 µM | > 100 µM | 7.81 | > 100 µM | > 100 µM | > 100 µM | 12.9 µM | 0.303 µM | 1.65 µM | 1.14 µM | 7.29 µM | 5.63 µM | 1.2 | 2.92 µM | 2.94 µM | 2.61 µM | 2.65 µM
